# Legend:
# [1] = Tolerability during chronic injection protocols; assay type: in vivo, mouse; details: daily injections for up to 8 weeks, 5 mg/kg i.p.
# Source text: Patients Human islets and adipocytes were obtained and cultured as described previously (Zhang et al., Nat Cell Biol, 19, 504-517, 2017; Kang et al., Nature Communications, 9, 367, 2018). The Patients involved in the study were anonymous and information such as gender, age, HbA1c, glucose levels and BMI only were available to the research team. The study was approved and carried out as per the guidelines of the University of Iowa Institutional Review Board (IRB). Animals All experimental procedures involving mice were approved by the Institutional Animal Care and Use Committee of the University of Iowa and Washington University at St. Louis. All C57BL/6 mice involved in study were purchased from Charles River Labs. Both KK.Cg-Ay/J (KKA^y) and KK.Cg-Aa/J (KKA^a) mice involved in study were gender and age-matched mice obtained from Jackson Labs (Stock No: 002468) and bred up for experiments. The mice were fed ad libitum with either regular chow (RC) or high-fat diet (Research Diets, Inc., 60 kcal % fat) with free access to water and housed in a light-, temperature- and humidity-controlled room. For high-fat diet (HFD) studies, only male mice were used and were started on HFD regimen at the age of 6-9 weeks. For all experiments involving KKA^y and KKA^a mice, both males and females were used at approximately 50/50 ratio. […] Based on GFP fluorescence, viral transduction efficiency was ˜90%.
# [2] = Metabolic phenotyping: fasting glucose, GTT, ITT; assay type: in vivo, mouse
# Source text: Patients Human islets and adipocytes were obtained and cultured as described previously (Zhang et al., Nat Cell Biol, 19, 504-517, 2017; Kang et al., Nature Communications, 9, 367, 2018). The Patients involved in the study were anonymous and information such as gender, age, HbA1c, glucose levels and BMI only were available to the research team. The study was approved and carried out as per the guidelines of the University of Iowa Institutional Review Board (IRB). Animals All experimental procedures involving mice were approved by the Institutional Animal Care and Use Committee of the University of Iowa and Washington University at St. Louis. All C57BL/6 mice involved in study were purchased from Charles River Labs. Both KK.Cg-Ay/J (KKA^y) and KK.Cg-Aa/J (KKA^a) mice involved in study were gender and age-matched mice obtained from Jackson Labs (Stock No: 002468) and bred up for experiments. The mice were fed ad libitum with either regular chow (RC) or high-fat diet (Research Diets, Inc., 60 kcal % fat) with free access to water and housed in a light-, temperature- and humidity-controlled room. For high-fat diet (HFD) studies, only male mice were used and were started on HFD regimen at the age of 6-9 weeks. For all experiments involving KKA^y and KKA^a mice, both males and females were used at approximately 50/50 ratio. In all experiments involving mice, investigators were kept blinded both during the experiments and subsequent analysis. Smod1 (DCPIB) treatment Smod1 (DCPIB, Tocris, #D1540), was dissolved in Kolliphor® EL (Sigma, #C5135). Either vehicle (Kolliphor® EL) or Smod1 (5 mg/kg of body weight/day) were injected (intraperitoneal, i.p.) using 1 cc syringe/26G/[…] needle daily for 4-10 days, and in one experiment, daily for 8 weeks. Adenovirus Adenovirus type 5 with Ad5-RIP2-GFP (4.1×10^10 PFU/ml) and Ad5-CAG-LoxP-stop-LoxP-3× Flag-SWELL1 (1×10^10 PFU/ml) were obtained from Vector Biolabs. Adenovirus type 5 with Ad5-CMV-Cre-wt-IRES-eGFP (8×10^10 PFU/ml) was obtained from the University of Iowa Viral Vector Core. Cell culture Wildtype (WT) and SWELL1 knockout (KO) 3T3-F442A (Sigma-Aldrich) cells were cultured and differentiated as described previously (Zhang et al., Nat Cell Biol, 19, 504-517, 2017). Preadipocytes were maintained in 90% DMEM (25 mM D-Glucose and 4 mM L-Glutamine) containing 10% fetal bovine serum (FBS) and 100 IU penicillin and 100 μg/ml streptomycin on collagen-coated (rat tail type-I collagen, Corning) plates. Upon reaching confluency, the cells were differentiated in the above-mentioned media supplemented with 5 μg/ml insulin (Cell Applications) and replenished every other day with the differentiation media. For insulin signaling studies on WT and KO adipocytes with or without SWELL1 overexpression (O/E), the cells were differentiated for 10 days and transduced with Ad5-CAG-LoxP-stop-LoxP-3× Flag-SWELL1 virus (MOI 12) on day 11 in 2% FBS containing differentiation medium. To induce the overexpression, Ad5-CMV-Cre-wt-IRES-eGFP (MOI 12) was added on day 13 in 2% FBS containing differentiation medium. The cells were then switched to 10% FBS containing differentiation medium from day 15 to 17. On day 18, the cells were starved in serum free media for 6 h and stimulated with 0 and 10 nM insulin for either 5 or 15 min. Either Ad5-CAG-LoxP-stop-LoxP-3× Flag-SWELL1 or Ad5-CMV-Cre-wt-IRES-eGFP virus transduced cells alone were used as controls. Based on GFP fluorescence, viral transduction efficiency was ˜90%.
# Electrophysiology Patch-clamp recordings of β-cells and mature adipocytes were performed as described previously (Zhang et al., Nat Cell Biol, 19, 504-517, 2017; Kang et al., Nature Communications, 9, 367, 2018). 3T3-F442A WT and KO preadipocytes were prepared as described in the Cell culture section above. […]
# [3] = HFD-induced T2D mice and KKA^y model, 5 mg/kg i.p. 4-10 days
# [4] = control KKA^a parental strain, 5 mg/kg x 4-10 days
smiles,measurement,setting,value
"CCCCC1(C2CCCC2)Cc2cc(OCCCC(=O)O)c(Cl)c(Cl)c2C1=O (stereo not drawn) [Smod1, 4-[(2-Butyl-6,7-dichloro-2-cyclopentyl-2,3-dihydro-1-oxo-1H-inden-5-yl)oxy]butanoic acid]",signs of toxicity,[1],no overt signs of toxicity
same,random glucose 30 minutes after injection,"[2]; HFD fed C57BL/6 mice, 5 mg/kg i.p., acute (FIG. 23)",no evidence of exacerbated hyperglycemia
same,fasting glucose (FG),[2]; [3],normalized
same,glucose tolerance (GTT),[2]; [3],normalized
same,insulin-tolerance (ITT),[2]; [3],markedly improved
same,glucose and insulin tolerance,[2]; [4],nor does it alter glucose and insulin tolerance
same,hypoglycemia,[2]; [4],does not cause hypoglycemia
same,"FG, GTT and ITT compared to vehicle","[2]; lean, non-T2D, glucose-tolerant mice",similar
same,"FG, GTT and ITT","[2]; re-treated after 16 weeks of HFD feeding, HFD-induced T2D mice",marked improvements

# From patent US20220249413A1, “SWELL 1 MODULATORS FOR TREATMENT OF NON-ALCOHOLIC FATTY LIVER DISEASE, IMMUNE DEFICIENCIES, MALE INFERTILITY AND VASCULAR DISEASES” (priority 2019, published 2022)
